Literature values, collected in patent US20150361500A1, “BIOMARKERS FOR DIAGNOSIS AND TREATMENT OF ACNE VULGARIS” (DermTech International, priority 2013, published 2015).

Test system: acne

In the case of `O=C(OOC(=O)c1ccccc1)c1ccccc1` [Benzoyl peroxide], the tolerability (2.5% concentration compared with 5 and 10%) is listed as “usually better tolerated”, the “effectiveness in acne treatment” value (5 and 10% concentrations compared with 2.5%) is listed as “not significantly more effective” and the skin reactions (gel or cream applied to affected areas) is listed as “commonly causes initial dryness and sometimes irritation”.
